Results from patent US20220105150A1, “AMPHIPATHIC ALPHA-HELICAL ANTIMICROBIAL PEPTIDES TREAT INFECTIONS BY GRAM-NEGATIVE PATHOGENS” (priority 2019, published 2022).
Values after ≈ are worked out from the molar mass of the structure shown.

Tests used:
human red blood cells = experiment: Hemolytic activity on human red blood cells; conditions: for HC50: red cells of human, 18 h
Experimental: For comparison, the inventors also determined the hemolytic activity after 18 hours at 37° C. Hemolysis can be determined with red blood cells (RBC) from various species including human red blood cells (hRBC).
(§1) The coupling procedure used 5 equivalents of Fmoc-D-amino acid or Fmoc-L-amino acid and HCTU (O-(1H-6-chlorobenzotriazole-1-yl)-1,1,3,3-tetramethyluronium hexafluorophosphate) and 6-Cl-HOBt (1-hydroxy-6-chloro-benztriazole) at 4.5 equivalents in DMF (Fisher Scientific, Denver, Colo.) and N-diisopropylethylamine (DIPEA) 10 equivalents (Oakwood Products, Inc., Estill, S.C.) in N-methyl-2-pyrrolidinone (NMP) (Fisher Scientific, Denver, Colo.) with the first and second couplings at room temperature for 30 min each. The deprotection procedure (removal of Fmoc protecting group) was carried out by treatment of the resin with 0.1 M HOBt (1-hydroxybenzotriazole) in DMF with 20% piperidine for 30 min. […] The resin was removed by filtration and peptide was precipitated with ice-cooled ethyl ether on ice for 15 min. Ether was decanted, the peptide was washed twice with ether and redissolved in acetonitrile/water (1:1, with 0.2% TFA) and the solution lyophilized to obtain the crude peptide. • Analytical and Preparative Purification by Reversed-Phase Chromatography: Analytical RP-HPLC: Column, Luna C18 (2), 250×4.6 mm I.D., 5 μm particle size, 100 Å pore size from Phenomenex (Torrance, Calif.). Run conditions: linear AB gradient (1% acetonitrile/min, starting from 2% acetonitrile) at a flow-rate of 1 ml/min, where eluent A is 0.2% aq. TFA and eluent B is 0.18% TFA in acetonitrile; temperature, 30° C. Preparative RP-HPLC: Peptides were dissolved in 0.2% aq. TFA containing 2% acetonitrile to a final concentration of 10 mg/ml. Following filtration through a 0.45 μm Millipore filter and subsequently through a 0.22 μm filter, the peptide solutions were loaded onto the column via multiple 20-ml injections into a 20-ml injection loop at a flow-rate of 10 ml/min. Column, Luna C18 (2), 250×30 mm I.D., 5 um particle size, 100 Å pore size from Phenomenex. Run conditions: 2% acetonitrile/min gradient up to an acetonitrile concentration 10% below that required to elute the peptide during analytical RP-HPLC, then shallow gradient elution (0.05% or 0.1% acetonitrile/min depending on the complexity of impurities near the product of interest on the analytical run of the crude peptide) at a flow-rate of 10 ml/min (same eluents as shown above for analytical RP-HPLC); at room temperature. • Temperature Profiling of Peptides on Reversed-phase HPLC to Measure Dimerization and Oligomerization: Purified peptides were analyzed on an Agilent 1200 series liquid chromatograph for temperature profiling using a Zorbax 300 SB-C8 column (150 mm×2.1 mm I.D.; 5 μm particle size, 300 Å pore size) from Agilent Technologies. […] Temperature profiling was carried out on peptide mixtures run at each temperature in 2° C. increments from 5° C. to 41° C. and 10° C. increments from 5° C. to 75° C. Twenty minutes was allowed between runs for temperature equilibration. • Characterization of Helical Structure: The mean residue molar ellipticities of peptides were determined by circular dichroism (CD) spectroscopy, using a Jasco J-815 spectropolarimeter (Jasco Inc. Easton, Md., USA) at 5° C. under KP buffer (50 mM NaH2PO4/Na2HPO4/100 mM KCl, pH 7.0) as well as in the presence of an α-helix inducing solvent, 2,2,2-trifluoroethanol, TFE, (50 mM NaH2PO4/Na2HPO4/100 mM KCl, pH 7.0 buffer/50% TFE). A 10-fold dilution of an approximately 500 μM stock solution of the peptide analogs was loaded into a 0.1 cm quartz cell and its ellipticity scanned from 195 to 250 nm.

[1] = test system: Acinetobacter baumannii isolates resistant to classical antibiotics; format: cell-based; conditions: isolates resistant to classical antibiotics
From the text: Thus, shortening the number of carbon atoms between the side-chain amino group and the α-carbon atom from four (Lys) to one (diaminopropionic acid) had very little effect on antibacterial activity (Table 2). We also determined the antibacterial activity of our five AMPs against 20 additional Acinetobacter baumannii isolates from four continents, 12 different countries and 17 different cities that were resistant to 18 different antibiotics. […] Thus, it is very clear that changing the type of positively-charged residue on the polar face of these AMPs had very little effect on the antibacterial activities.

[2] = test system: Acinetobacter baumannii strains resistant to Polymyxin B and Colistin; conditions: strains resistant to Polymyxin B and Colistin, 24 h
From the text: as §1

Row | Compound | HC50 Fold Improvement (human red blood cells) | hemolytic activity against red blood cells from four blood donors (human red blood cells) | HC50 (human red blood cells) [µM] | MIC 101887 [1] [µM] | MIC 961997 [1] [µM] | MIC 963618 [1] [µM] | MIC 964304 [1] [µM] | MIC 977751 [1] [µM] | MIC 981653 [1] [µM] | MIC 1002956 [1] [µM] | MIC 1007660 [1] [µM] | MIC 1010282 [1] [µM] | MIC 1035166 [1] [µM] | MIC MB9941 [2] [µM] | MIC MB9949 [2] [µM] | MIC MB9951 [2] [µM] | MIC MB9952 [2] [µM] | MIC MB9953 [2] [µM] | MIC MB9955 [2] [µM] | MIC MB9963 [2] [µM]
1 | CC(=O)N[C@H](CCCCN)C(=O)N[C@H](CC(C)C)C(=O)N[C@@H](CCN)C(=O)N[C@H](CO)C(=O)N[C@H](CC(C)C)C(=O)N[C@H](CC(C)C)C(=O)N[C@@H](CCN)C(=O)N[C@@H](C(=O)N[C@H](CC(C)C)C(=O)N[C@H](CO)C(=O)N[C@@H](CCN)C(=O)N[C@H](C)C(=O)N[C@H](CCCCN)C(=O)N[C@H](C)C(=O)N[C@H](C)C(=O)N[C@H](CCCCN)C(=O)N[C@H](CC(C)C)C(=O)N[C@@H](CCN)C(=O)N[C@@H](C(=O)N[C@H](CC(C)C)C(=O)N[C@H](CC(C)C)C(=O)N[C@@H](CCN)C(=O)N[C@H](C)C(=O)N[C@H](CC(C)C)C(=O)N[C@H](CO)C(=O)N[C@@H](CCN)C(N)=O)[C@H](C)O)[C@H](C)O [D86(Lys^1-6Dab-1), Ac-KL(L-Dab)SLL(L-Dab)TLS(L-Dab)AKAAKL(L-Dab)TLL(L-Dab)ALS(L-Dab)-amide] | >186 | very little hemolytic activity | >742 | 0.7 (≈ 1.89 µg/mL) | 0.7 (≈ 1.89 µg/mL) | 0.7 (≈ 1.89 µg/mL) | 1.5 (≈ 4.05 µg/mL) | 0.7 (≈ 1.89 µg/mL) | 0.7 (≈ 1.89 µg/mL) | 0.7 (≈ 1.89 µg/mL) | 0.7 (≈ 1.89 µg/mL) | 0.7 (≈ 1.89 µg/mL) | 0.7 (≈ 1.89 µg/mL) |  |  |  |  |  |  | 
2 | CC(=O)N[C@H](CCCCN)C(=O)N[C@H](CC(C)C)C(=O)N[C@@H](CCN)C(=O)N[C@H](CO)C(=O)N[C@H](CC(C)C)C(=O)N[C@H](CC(C)C)C(=O)N[C@@H](CCN)C(=O)N[C@@H](C(=O)N[C@H](CC(C)C)C(=O)N[C@H](CO)C(=O)N[C@@H](CCN)C(=O)N[C@H](C)C(=O)N[C@H](CCCCN)C(=O)N[C@H](C)C(=O)N[C@H](C)C(=O)N[C@H](CCCCN)C(=O)N[C@H](CC(C)C)C(=O)N[C@@H](CCN)C(=O)N[C@@H](C(=O)N[C@H](CC(C)C)C(=O)N[C@H](CC(C)C)C(=O)N[C@@H](CCN)C(=O)N[C@H](C)C(=O)N[C@H](CC(C)C)C(=O)N[C@H](CO)C(=O)N[C@H](CO)C(N)=O)[C@H](C)O)[C@H](C)O [D102(Lys^1Ser^26-5Dab-1), Ac-KL(L-Dab)SLL(L-Dab)TLS(L-Dab)AKAAKL(L-Dab)TLL(L-Dab)ALS(Ser)-amide] | >177 |  |  | 0.7 (≈ 1.88 µg/mL) | 1.5 (≈ 4.03 µg/mL) | 0.4 (≈ 1.07 µg/mL) | 0.7 (≈ 1.88 µg/mL) | 0.7 (≈ 1.88 µg/mL) | 0.4 (≈ 1.07 µg/mL) | 0.4 (≈ 1.07 µg/mL) | 0.4 (≈ 1.07 µg/mL) | 0.7 (≈ 1.88 µg/mL) | 0.7 (≈ 1.88 µg/mL) | 0.4 (≈ 1.07 µg/mL) | 0.7 (≈ 1.88 µg/mL) | 0.7 (≈ 1.88 µg/mL) | 0.7 (≈ 1.88 µg/mL) | 1.4 (≈ 3.76 µg/mL) | 0.7 (≈ 1.88 µg/mL) | 0.7 (≈ 1.88 µg/mL)
3 | CC(=O)N[C@H](CCCCN)C(=O)N[C@H](CC(C)C)C(=O)N[C@@H](CN)C(=O)N[C@H](CO)C(=O)N[C@H](CC(C)C)C(=O)N[C@H](CC(C)C)C(=O)N[C@@H](CN)C(=O)N[C@@H](C(=O)N[C@H](CC(C)C)C(=O)N[C@H](CO)C(=O)N[C@@H](CN)C(=O)N[C@H](C)C(=O)N[C@H](CCCCN)C(=O)N[C@H](C)C(=O)N[C@H](C)C(=O)N[C@H](CCCCN)C(=O)N[C@H](CC(C)C)C(=O)N[C@@H](CN)C(=O)N[C@@H](C(=O)N[C@H](CC(C)C)C(=O)N[C@H](CC(C)C)C(=O)N[C@@H](CN)C(=O)N[C@H](C)C(=O)N[C@H](CC(C)C)C(=O)N[C@H](CO)C(=O)N[C@@H](CN)C(N)=O)[C@H](C)O)[C@H](C)O [D105(Lys^1-6Dap-1), Ac-KL(L-Dap)SLL(L-Dap)TLS(L-Dap)AKAAKL(L-Dap)TLL(L-Dap)ALS(L-Dap)-amide] | >287 |  | >1148 | 0.8 (≈ 2.09 µg/mL) | 1.5 (≈ 3.92 µg/mL) | 0.8 (≈ 2.09 µg/mL) | 1.5 (≈ 3.92 µg/mL) | 0.8 (≈ 2.09 µg/mL) | 0.8 (≈ 2.09 µg/mL) | 0.8 (≈ 2.09 µg/mL) | 0.8 (≈ 2.09 µg/mL) | 0.8 (≈ 2.09 µg/mL) | 0.8 (≈ 2.09 µg/mL) | 0.8 (≈ 2.09 µg/mL) | 0.8 (≈ 2.09 µg/mL) | 3.0 (≈ 7.84 µg/mL) | 0.8 (≈ 2.09 µg/mL) | 3.0 (≈ 7.84 µg/mL) |  | 1.5 (≈ 3.92 µg/mL)
